# Experimental data: article PMC2229834 (Molecular Microbiology, 2007)
# Key:
# human PTPS (HsPTPS) = molecular target: T1, human PTPS (HsPTPS) (Homo sapiens, UniProt Q03393); assay: HPLC with fluorescence of iodine-oxidised pterin products; format: biochemical; conditions: 9 uM DHNTP, 10 mM MgCl2, 2 mM DTT, pH 8.0, 37 C, 1 h
# T1 sequence (Q03393 1-145): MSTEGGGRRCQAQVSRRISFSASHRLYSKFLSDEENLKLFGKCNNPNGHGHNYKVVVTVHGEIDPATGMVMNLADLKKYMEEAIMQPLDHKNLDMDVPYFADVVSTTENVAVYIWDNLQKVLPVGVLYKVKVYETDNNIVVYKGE
# E. coli PTPS (EcPTPS) = molecular target: T2, E. coli PTPS (EcPTPS) (Escherichia coli, UniProt P65870); assay: as above; format: biochemical; conditions: 9 uM DHNTP, 10 mM MgCl2, 2 mM DTT, pH 8.0, 37 C, 1 h
# T2 sequence (P65870 1-121): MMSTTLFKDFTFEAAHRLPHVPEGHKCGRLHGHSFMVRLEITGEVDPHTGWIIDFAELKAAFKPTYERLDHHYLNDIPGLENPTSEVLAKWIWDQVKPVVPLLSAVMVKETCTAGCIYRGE
smiles,measurement,setting,value
Nc1nc2c(c(=O)[nH]1)N=C([C@H](O)[C@H](O)COP(=O)(O)OP(=O)(O)OP(=O)(O)O)CN2 [DHNTP],HPLC with fluorescence of iodine-oxidised pterin products,human PTPS (HsPTPS),Both the bacterial and human enzymes converted DHNTP to PTP as expected
same,HPLC with fluorescence of iodine-oxidised pterin products,E. coli PTPS (EcPTPS),Both the bacterial and human enzymes converted DHNTP to PTP as expected
